From paper PMC3672506, “A useful EGFR-TK ligand for tumor diagnosis with SPECT: development of radioiodinated 6-(3-morpholinopropoxy)-7-ethoxy-4-(3′-iodophenoxy)quinazoline” (Annals of Nuclear Medicine, 2013)
Read-outs that look alike come from different tables or passages of the source.

What was measured:
A431 tumor = type: in vivo, balb/c nude mice; settings: for Blood radioactivity / Brain radioactivity / Heart radioactivity / Kidney radioactivity / Liver radioactivity / Lung radioactivity / Muscle radioactivity / Pancreas radioactivity / Spleen radioactivity / Stomach radioactivity / Tumor radioactivity: A-431 tumor-bearing mice, i.v.
Method: The animals were euthanized 1, 6, 12 or 24 h after injection of the radioligands (37 kBq, 74 TBq/mmol in 0.1 mL saline), and the distributions were studied as described above.
In particular, the radioactivity accumulated in the liver 24 h after injection was approximately 1/50 of the radioactivity 1 h after injection. Thus, tumor-to-organ ratios for [^125I]PYK 24 h after injection had desirable values (Fig. 3b: tumor to lung: 8.5, tumor to kidney: 4.3, tumor to liver: 3.0) for tumor diagnostic imaging.

[1] = target: EGFR-TK in A431 cell membranes (Homo sapiens, UniProt P00533); type: binding
Sequence of EGFR-TK in A431 cell membranes (P00533 25-1210): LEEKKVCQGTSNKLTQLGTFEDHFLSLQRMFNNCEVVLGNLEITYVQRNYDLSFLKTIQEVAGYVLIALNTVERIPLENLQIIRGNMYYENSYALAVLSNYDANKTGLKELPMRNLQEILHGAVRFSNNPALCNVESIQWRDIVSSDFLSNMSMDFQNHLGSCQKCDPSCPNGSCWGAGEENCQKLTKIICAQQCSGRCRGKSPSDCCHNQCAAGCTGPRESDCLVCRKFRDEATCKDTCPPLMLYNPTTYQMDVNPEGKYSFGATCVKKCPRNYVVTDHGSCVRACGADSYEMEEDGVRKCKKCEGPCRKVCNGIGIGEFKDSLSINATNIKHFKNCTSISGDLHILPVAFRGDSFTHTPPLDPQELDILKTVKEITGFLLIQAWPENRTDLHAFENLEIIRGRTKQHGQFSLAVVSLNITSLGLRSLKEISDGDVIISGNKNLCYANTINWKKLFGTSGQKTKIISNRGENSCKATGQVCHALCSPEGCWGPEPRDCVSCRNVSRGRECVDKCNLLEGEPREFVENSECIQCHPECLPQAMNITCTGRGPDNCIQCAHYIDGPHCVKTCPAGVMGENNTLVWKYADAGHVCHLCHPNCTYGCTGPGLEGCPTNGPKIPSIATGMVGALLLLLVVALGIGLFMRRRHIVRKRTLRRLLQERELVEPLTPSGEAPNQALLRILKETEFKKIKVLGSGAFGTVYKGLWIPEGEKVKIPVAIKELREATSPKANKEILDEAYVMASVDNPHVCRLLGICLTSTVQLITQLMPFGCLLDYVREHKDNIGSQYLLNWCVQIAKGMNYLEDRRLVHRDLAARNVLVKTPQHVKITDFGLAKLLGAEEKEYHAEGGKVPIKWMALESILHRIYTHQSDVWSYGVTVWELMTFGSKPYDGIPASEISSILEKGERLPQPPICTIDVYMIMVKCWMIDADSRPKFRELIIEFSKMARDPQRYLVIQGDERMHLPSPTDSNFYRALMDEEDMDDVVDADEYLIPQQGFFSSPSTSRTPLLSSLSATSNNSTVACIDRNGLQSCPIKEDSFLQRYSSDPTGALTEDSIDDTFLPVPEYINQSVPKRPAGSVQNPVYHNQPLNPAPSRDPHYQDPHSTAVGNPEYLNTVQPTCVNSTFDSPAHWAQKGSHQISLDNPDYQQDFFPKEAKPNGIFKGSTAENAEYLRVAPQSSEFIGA
Method: (§1) Assays were carried out as described in the previous section. Crude P2 membrane fractions (A431or NALM6, 0.1 mg of protein, 10 μL) and [^125I]PYK (1–300 nM, 100 μL, 0.74 kBq) were used. […] Specific binding was defined as the difference between the total and non-specific binding. Scatchard plot analysis of the saturation binding data was used to determine the equilibrium dissociation constant (K d) and the maximal number of binding sites (B max).
(§2) The crude P2 membrane fraction from A431 or NAlM6 cells were used in further binding experiments for pharmacological characterization. […] While, in the NALM6 as a negative-EGFR leukemia cell line, [^125I]PYK binding to cell membranes was undetectable.

NALM6 cell membranes = type: binding; settings: NALM6, negative-EGFR leukemia cell line
Method: as §1, §2

[2] = A431 tumor-bearing mice, 24 h after injection

## CCOc1cc2ncnc(Oc3cccc([125I])c3)c2cc1OCCCN1CCOCC1 [[^125I]PYK]
A431 tumor; A431 tumor-bearing mice
  liver radioactivity 24 h after injection relative to 1 h after injection: approximately 1/50
A431 tumor; [2]
  tumor to kidney ratio: 4.3
  tumor to liver ratio: 3.0
  tumor to lung ratio: 8.5
  tumor/blood ratio: 57.0
  tumor/muscle ratio: 45.5
A431 tumor; 1 h after injection
  Blood radioactivity: 0.80 ± 0.14 % injected dose per gram
  Brain radioactivity: 0.88 ± 0.07 % injected dose per gram
  Heart radioactivity: 1.19 ± 0.17 % injected dose per gram
  Kidney radioactivity: 7.40 ± 0.66 % injected dose per gram
  Liver radioactivity: 27.0 ± 1.29 % injected dose per gram
  Lung radioactivity: 4.14 ± 0.48 % injected dose per gram
  Muscle radioactivity: 1.34 ± 0.21 % injected dose per gram
  Pancreas radioactivity: 2.80 ± 0.19 % injected dose per gram
  Spleen radioactivity: 2.14 ± 0.04 % injected dose per gram
  Stomach radioactivity: 6.10 ± 2.08 % injected dose per gram
  Tumor radioactivity: 4.37 ± 0.65 % injected dose per gram
A431 tumor; 6 h after injection
  Blood radioactivity: 0.20 ± 0.04 % injected dose per gram
  Brain radioactivity: 0.17 ± 0.03 % injected dose per gram
  Heart radioactivity: 0.50 ± 0.04 % injected dose per gram
  Kidney radioactivity: 3.53 ± 0.72 % injected dose per gram
  Liver radioactivity: 7.89 ± 1.45 % injected dose per gram
  Lung radioactivity: 2.29 ± 0.69 % injected dose per gram
  Muscle radioactivity: 0.39 ± 0.02 % injected dose per gram
  Pancreas radioactivity: 1.59 ± 0.25 % injected dose per gram
  Spleen radioactivity: 1.02 ± 0.18 % injected dose per gram
  Stomach radioactivity: 1.23 ± 0.60 % injected dose per gram
  Tumor radioactivity: 3.59 ± 0.73 % injected dose per gram
A431 tumor; 12 h after injection
  Blood radioactivity: 0.06 ± 0.01 % injected dose per gram
  Brain radioactivity: 0.04 ± 0.01 % injected dose per gram
  Heart radioactivity: 0.14 ± 0.02 % injected dose per gram
  Kidney radioactivity: 1.06 ± 0.14 % injected dose per gram
  Liver radioactivity: 1.55 ± 0.32 % injected dose per gram
  Lung radioactivity: 0.61 ± 0.18 % injected dose per gram
  Muscle radioactivity: 0.09 ± 0.02 % injected dose per gram
  Pancreas radioactivity: 0.41 ± 0.06 % injected dose per gram
  Spleen radioactivity: 0.21 ± 0.01 % injected dose per gram
  Stomach radioactivity: 0.69 ± 0.51 % injected dose per gram
  Tumor radioactivity: 1.72 ± 0.42 % injected dose per gram
A431 tumor; 24 h after injection
  Blood radioactivity: 0.03 ± 0.00 % injected dose per gram
  Brain radioactivity: 0.02 ± 0.00 % injected dose per gram
  Heart radioactivity: 0.05 ± 0.01 % injected dose per gram
  Kidney radioactivity: 0.36 ± 0.04 % injected dose per gram
  Liver radioactivity: 0.51 ± 0.35 % injected dose per gram
  Lung radioactivity: 0.18 ± 0.07 % injected dose per gram
  Muscle radioactivity: 0.03 ± 0.01 % injected dose per gram
  Pancreas radioactivity: 0.14 ± 0.02 % injected dose per gram
  Spleen radioactivity: 0.07 ± 0.03 % injected dose per gram
  Stomach radioactivity: 0.38 ± 0.19 % injected dose per gram
  Tumor radioactivity: 1.53 ± 0.15 % injected dose per gram
[1]; A431 P2 membranes, Scatchard analysis
  Bmax: 27.0 ± 3.43 pmol/mg protein
[1]; A431 membranes
  Hill's constant value: 1.02
NALM6 cell membranes
  binding to cell membranes: undetectable
